Source: patent US9527869B2, “Indolizine derivatives as phoshoinositide 3-kinases inhibitors” (CHIESI FARMACEUTICI S.P.A., priority 2014, dated 2016)

Experiments:
Type in all cases: biochemical
PI3Kδ = target: T1, PI3Kδ (Homo sapiens, UniProt O00329); assay: In vitro determination of the PI3K enzyme inhibitory activity in the cell free assay (ADP-Glo Kinase Assay), PI3Kδ; conditions: ATP 80 μM, read-out: PI3K delta inhibition
T1 construct: purchased Millipore Ltd (Billerica, Mass.)
Outline: (§1)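 Human recombinant PI3K isoforms with PI/PS lipid substrates (50 μM in 2× buffer, Tris pH 7.5, DTT) were run 60 min at room temperature. Final ATP was 50 μM for α, 100 μM for β, 30 μM for γ and 80 μM for δ. ADP formation was read by ADP-Glo luminescence, and IC50 came from a four-parameter logistic fit.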

PI3Kγ = target: T2, PI3Kγ (Homo sapiens, UniProt P48736); assay: In vitro determination of the PI3K enzyme inhibitory activity in the cell free assay (ADP-Glo Kinase Assay), PI3Kγ; conditions: ATP 30 μM, read-out: PI3K gamma inhibition
T2 construct: purchased Millipore Ltd (Billerica, Mass.)
Outline: as §1

PI3Kβ = target: T3, PI3Kβ (Homo sapiens, UniProt P42338); assay: In vitro determination of the PI3K enzyme inhibitory activity in the cell free assay (ADP-Glo Kinase Assay), PI3Kβ; conditions: ATP 100 μM, read-out: PI3K beta inhibition
T3 construct: purchased Millipore Ltd (Billerica, Mass.)
Outline: as §1

PI3Kα = target: T4, PI3Kα (Homo sapiens, UniProt P42336); assay: In vitro determination of the PI3K enzyme inhibitory activity in the cell free assay (ADP-Glo Kinase Assay), PI3Kα; conditions: ATP 50 μM, read-out: PI3K alpha inhibition
T4 construct: purchased Millipore Ltd (Billerica, Mass.)
Outline: as §1

T2 sequence (P48736 whole entry): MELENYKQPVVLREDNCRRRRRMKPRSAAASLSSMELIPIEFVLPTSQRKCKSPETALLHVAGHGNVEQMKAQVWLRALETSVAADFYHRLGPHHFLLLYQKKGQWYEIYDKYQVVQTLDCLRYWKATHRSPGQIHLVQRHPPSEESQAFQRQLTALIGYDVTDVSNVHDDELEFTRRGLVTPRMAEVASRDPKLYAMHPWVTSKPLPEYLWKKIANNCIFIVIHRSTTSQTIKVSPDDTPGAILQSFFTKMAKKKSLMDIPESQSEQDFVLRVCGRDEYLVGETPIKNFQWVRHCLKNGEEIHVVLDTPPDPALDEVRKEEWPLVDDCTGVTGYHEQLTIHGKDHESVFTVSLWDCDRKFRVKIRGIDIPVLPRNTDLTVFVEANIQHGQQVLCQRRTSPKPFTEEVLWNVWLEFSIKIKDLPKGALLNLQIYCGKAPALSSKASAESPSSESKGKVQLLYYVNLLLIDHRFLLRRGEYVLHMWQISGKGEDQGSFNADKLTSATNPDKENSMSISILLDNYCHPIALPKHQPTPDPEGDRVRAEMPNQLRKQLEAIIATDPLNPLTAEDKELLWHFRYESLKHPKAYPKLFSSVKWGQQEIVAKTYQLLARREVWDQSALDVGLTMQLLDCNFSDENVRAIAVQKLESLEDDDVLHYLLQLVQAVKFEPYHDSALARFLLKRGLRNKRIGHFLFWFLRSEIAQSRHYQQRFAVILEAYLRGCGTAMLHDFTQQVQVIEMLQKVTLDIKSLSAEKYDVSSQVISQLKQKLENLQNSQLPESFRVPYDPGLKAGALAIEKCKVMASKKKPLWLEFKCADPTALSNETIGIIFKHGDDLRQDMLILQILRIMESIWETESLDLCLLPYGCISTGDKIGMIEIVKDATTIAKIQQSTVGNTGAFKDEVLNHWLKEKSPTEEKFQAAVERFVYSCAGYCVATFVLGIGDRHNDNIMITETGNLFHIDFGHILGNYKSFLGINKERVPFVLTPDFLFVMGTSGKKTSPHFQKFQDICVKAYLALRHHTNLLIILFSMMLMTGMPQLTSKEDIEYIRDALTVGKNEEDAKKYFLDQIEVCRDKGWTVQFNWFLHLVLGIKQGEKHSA
T3 sequence (P42338 whole entry): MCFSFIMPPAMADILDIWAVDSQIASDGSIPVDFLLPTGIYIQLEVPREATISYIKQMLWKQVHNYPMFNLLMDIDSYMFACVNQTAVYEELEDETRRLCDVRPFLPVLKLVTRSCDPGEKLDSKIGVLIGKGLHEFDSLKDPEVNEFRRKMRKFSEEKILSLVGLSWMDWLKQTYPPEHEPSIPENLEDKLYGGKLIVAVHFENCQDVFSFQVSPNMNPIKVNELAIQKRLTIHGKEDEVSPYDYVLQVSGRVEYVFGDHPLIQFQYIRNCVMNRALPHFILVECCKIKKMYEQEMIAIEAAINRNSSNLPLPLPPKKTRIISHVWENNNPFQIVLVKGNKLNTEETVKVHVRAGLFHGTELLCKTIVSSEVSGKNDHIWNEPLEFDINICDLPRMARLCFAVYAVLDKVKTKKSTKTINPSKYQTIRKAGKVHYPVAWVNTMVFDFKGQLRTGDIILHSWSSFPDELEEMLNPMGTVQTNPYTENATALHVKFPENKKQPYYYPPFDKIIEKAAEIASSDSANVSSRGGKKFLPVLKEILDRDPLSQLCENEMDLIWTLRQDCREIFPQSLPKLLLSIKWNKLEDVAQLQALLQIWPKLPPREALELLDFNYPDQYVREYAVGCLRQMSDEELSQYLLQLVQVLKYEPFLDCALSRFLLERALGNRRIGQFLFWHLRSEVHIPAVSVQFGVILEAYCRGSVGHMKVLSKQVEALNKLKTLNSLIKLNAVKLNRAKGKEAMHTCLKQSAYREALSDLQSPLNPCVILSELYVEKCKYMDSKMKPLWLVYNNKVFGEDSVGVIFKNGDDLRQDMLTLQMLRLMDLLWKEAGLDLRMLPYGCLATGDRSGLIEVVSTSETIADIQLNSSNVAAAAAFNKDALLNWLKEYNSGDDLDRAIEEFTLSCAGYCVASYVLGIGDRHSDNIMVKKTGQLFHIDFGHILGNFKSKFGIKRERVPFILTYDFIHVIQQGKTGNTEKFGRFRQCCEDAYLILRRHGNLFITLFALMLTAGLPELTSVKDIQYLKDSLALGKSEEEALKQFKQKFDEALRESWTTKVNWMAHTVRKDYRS
T3 sequence (P27986 whole entry partner): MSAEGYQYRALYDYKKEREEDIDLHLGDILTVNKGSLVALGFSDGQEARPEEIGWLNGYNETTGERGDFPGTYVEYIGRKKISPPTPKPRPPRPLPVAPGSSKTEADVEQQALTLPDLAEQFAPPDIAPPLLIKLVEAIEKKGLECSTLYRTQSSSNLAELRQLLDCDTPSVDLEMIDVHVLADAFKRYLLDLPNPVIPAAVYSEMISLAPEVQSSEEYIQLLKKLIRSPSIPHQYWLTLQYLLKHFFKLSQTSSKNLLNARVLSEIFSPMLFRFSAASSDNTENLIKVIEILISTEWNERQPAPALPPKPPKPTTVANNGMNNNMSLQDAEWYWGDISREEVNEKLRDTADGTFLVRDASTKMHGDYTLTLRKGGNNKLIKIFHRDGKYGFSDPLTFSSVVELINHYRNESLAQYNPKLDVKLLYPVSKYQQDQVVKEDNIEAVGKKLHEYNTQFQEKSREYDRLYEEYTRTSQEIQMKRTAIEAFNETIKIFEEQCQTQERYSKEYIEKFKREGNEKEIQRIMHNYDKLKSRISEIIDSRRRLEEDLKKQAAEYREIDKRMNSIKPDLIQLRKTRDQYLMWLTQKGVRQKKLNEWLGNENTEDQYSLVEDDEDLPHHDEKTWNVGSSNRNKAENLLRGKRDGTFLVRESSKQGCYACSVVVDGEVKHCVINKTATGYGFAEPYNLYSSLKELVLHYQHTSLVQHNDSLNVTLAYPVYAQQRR
T4 sequence (P42336 whole entry): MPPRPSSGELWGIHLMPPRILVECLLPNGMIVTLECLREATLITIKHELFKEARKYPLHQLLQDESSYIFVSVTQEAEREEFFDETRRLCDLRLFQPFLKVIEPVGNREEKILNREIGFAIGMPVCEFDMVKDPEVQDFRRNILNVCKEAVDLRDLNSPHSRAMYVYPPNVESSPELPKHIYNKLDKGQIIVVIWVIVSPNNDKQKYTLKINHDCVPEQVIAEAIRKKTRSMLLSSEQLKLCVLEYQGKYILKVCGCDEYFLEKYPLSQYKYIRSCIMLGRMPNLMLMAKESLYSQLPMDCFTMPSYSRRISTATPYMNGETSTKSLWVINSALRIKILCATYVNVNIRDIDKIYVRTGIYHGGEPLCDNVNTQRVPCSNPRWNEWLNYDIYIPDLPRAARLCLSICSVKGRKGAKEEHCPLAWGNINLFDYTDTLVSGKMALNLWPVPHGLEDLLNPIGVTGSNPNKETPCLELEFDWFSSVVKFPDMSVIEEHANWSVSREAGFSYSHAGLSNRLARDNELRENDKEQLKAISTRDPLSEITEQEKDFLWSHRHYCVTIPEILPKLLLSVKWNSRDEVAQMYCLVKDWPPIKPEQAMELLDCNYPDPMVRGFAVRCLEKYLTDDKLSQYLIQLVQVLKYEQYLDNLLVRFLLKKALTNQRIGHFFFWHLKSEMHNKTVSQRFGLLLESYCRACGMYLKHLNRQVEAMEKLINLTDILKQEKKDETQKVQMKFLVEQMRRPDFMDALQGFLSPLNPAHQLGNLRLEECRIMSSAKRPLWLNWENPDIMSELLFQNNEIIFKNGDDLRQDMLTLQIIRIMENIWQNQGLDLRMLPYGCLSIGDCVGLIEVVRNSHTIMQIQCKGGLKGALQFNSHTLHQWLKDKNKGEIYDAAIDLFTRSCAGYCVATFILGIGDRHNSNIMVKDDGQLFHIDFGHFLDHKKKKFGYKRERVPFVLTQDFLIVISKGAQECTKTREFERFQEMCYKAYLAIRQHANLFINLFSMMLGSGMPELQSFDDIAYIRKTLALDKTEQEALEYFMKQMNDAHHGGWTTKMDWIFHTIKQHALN
T4 sequence (P27986 whole entry partner): as the sequence (P27986 whole entry partner) above
T1 sequence (O00329 whole entry): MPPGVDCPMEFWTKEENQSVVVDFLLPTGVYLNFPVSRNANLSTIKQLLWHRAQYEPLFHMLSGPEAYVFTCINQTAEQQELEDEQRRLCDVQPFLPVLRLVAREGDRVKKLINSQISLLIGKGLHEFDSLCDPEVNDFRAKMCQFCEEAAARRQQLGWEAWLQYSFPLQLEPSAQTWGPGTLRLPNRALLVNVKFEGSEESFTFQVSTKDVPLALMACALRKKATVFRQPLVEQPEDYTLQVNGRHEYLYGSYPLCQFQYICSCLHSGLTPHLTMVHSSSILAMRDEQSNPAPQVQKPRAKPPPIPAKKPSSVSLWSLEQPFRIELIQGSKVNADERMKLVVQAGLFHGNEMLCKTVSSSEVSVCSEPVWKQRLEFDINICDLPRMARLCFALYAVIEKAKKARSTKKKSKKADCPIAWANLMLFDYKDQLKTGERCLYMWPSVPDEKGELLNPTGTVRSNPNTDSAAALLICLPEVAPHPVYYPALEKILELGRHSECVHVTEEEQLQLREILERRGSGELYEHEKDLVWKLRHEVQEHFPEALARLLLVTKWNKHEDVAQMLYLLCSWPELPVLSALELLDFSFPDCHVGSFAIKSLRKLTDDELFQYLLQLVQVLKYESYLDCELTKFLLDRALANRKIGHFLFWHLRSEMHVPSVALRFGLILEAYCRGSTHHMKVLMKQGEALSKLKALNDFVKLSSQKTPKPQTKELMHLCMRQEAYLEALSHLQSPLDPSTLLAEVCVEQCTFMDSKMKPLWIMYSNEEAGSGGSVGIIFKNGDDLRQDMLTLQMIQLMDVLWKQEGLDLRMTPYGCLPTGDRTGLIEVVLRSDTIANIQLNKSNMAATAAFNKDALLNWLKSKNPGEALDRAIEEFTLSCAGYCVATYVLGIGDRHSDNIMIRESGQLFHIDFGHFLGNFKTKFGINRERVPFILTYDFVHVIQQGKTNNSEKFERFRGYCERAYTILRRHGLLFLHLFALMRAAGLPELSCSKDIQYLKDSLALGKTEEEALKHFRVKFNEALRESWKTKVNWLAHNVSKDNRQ
T1 sequence (P27986 whole entry partner): as the sequence (P27986 whole entry partner) above

Compound	IC50 (PI3Kδ)	IC50 (PI3Kγ)	IC50 (PI3Kβ)	IC50 (PI3Kα)
CC(c1cc2ccccn2c1-c1ccccn1)n1nc(-c2cccc(S(N)(=O)=O)c2)c2c(N)ncnc21 (stereo not shown) [Example 73, 3-(4-amino-1-{1-[3-(pyridin-2-yl)indolizin-2-yl]ethyl}-1H-pyrazolo[3,4-d]pyrimidin-3-yl)benzene-1-sulfonamide]	10 to 1000 nM	> 1000 nM	> 1000 nM	> 1000 nM
CC(c1cc2ccccn2c1-c1ccccn1)n1nc(-c2cc(F)cc(NS(C)(=O)=O)c2)c2c(N)ncnc21 (stereo not shown) [Example 74, N-[3-(4-amino-1-{1-[3-(pyridin-2-yl)indolizin-2-yl]ethyl}-1H-pyrazolo[3,4-d]pyrimidin-3-yl)-5-fluorophenyl]methanesulfonamide]	10 to 1000 nM	> 1000 nM	> 1000 nM	> 1000 nM
CC(c1cc2ccccn2c1-c1ccccn1)n1nc(-c2cc(F)cc(S(N)(=O)=O)c2)c2c(N)ncnc21 (stereo not shown) [Example 75, 3-(4-amino-1-{1-[3-(pyridin-2-yl)indolizin-2-yl]ethyl}-1H-pyrazolo[3,4-d]pyrimidin-3-yl)-5-fluorobenzene-1-sulfonamide]	> 1000 nM	> 1000 nM	> 1000 nM	> 1000 nM
CC(c1cc2ccccn2c1-c1ccccn1)n1nc(-c2cc(O)cc(C#N)c2)c2c(N)ncnc21 (stereo not shown) [Example 77, 3-(4-amino-1-{1-[3-(pyridin-2-yl)indolizin-2-yl]ethyl}-1H-pyrazolo[3,4-d]pyrimidin-3-yl)-5-hydroxybenzonitrile]	< 10 nM	10 to 1000 nM	10 to 1000 nM	> 1000 nM
CC(c1cc2ccccn2c1-c1ccccn1)n1nc(-c2cc(F)cc(-c3nnn[nH]3)c2)c2c(N)ncnc21 (stereo not shown) [Example 78, 3-[3-fluoro-5-(1H-1,2,3,4-tetrazol-5-yl)phenyl]-1-{1-[3-(pyridin-2-yl)indolizin-2-yl]ethyl}-1H-pyrazolo[3,4-d]pyrimidin-4-amine:ammonia 2:1]	> 1000 nM	> 1000 nM	> 1000 nM	> 1000 nM
CC(c1cc2ccc(C(F)(F)F)cn2c1-c1ccccn1)n1nc(-c2cc(O)cc(F)c2)c2c(N)ncnc21 (stereo not shown) [Example 88, 3-(4-amino-1-{1-[3-(pyridin-2-yl)-6-(trifluoromethyl)indolizin-2-yl]ethyl}-1H-pyrazolo[3,4-d]pyrimidin-3-yl)-5-fluorophenol]	10 to 1000 nM	> 1000 nM	> 1000 nM	> 1000 nM
Cc1c(C(C)n2nc(-c3cc(O)cc(F)c3)c3c(N)ncnc32)c(-c2ccccn2)n2ccccc12 (stereo not shown) [Example 89, 3-(4-amino-1-{1-[1-methyl-3-(pyridin-2-yl)indolizin-2-yl]ethyl}-1H-pyrazolo[3,4-d]pyrimidin-3-yl)-5-fluorophenol]	10 to 1000 nM	10 to 1000 nM	10 to 1000 nM	10 to 1000 nM
CC(c1cc2ccccn2c1-c1ccc(CN2CCOCC2)s1)n1nc(-c2cc(O)cc(F)c2)c2c(N)ncnc21 (stereo not shown) [Example 90, 3-[4-amino-1-(1-{3-[5-(morpholin-4-ylmethyl)thiophen-2-yl]indolizin-2-yl}ethyl)-1H-pyrazolo[3,4-d]pyrimidin-3-yl]-5-fluorophenol]	< 10 nM	10 to 1000 nM	10 to 1000 nM	10 to 1000 nM
CC(c1cc2ccccn2c1N1CCCC1=O)n1nc(-c2cc(O)cc(F)c2)c2c(N)ncnc21 (stereo not shown) [Example 95, 1-(2-{1-[4-amino-3-(3-fluoro-5-hydroxyphenyl)-1H-pyrazolo[3,4-d]pyrimidin-1-yl]ethyl}indolizin-3-yl)pyrrolidin-2-one]	< 10 nM	10 to 1000 nM	10 to 1000 nM	10 to 1000 nM
CC(c1cc2ccccn2c1-c1ccccn1)n1nc(C#CCO)c2c(N)ncnc21 (stereo not shown) [Example 102, 3-(4-amino-1-{1-[3-(pyridin-2-yl)indolizin-2-yl]ethyl}-1H-pyrazolo[3,4-d]pyrimidin-3-yl)prop-2-yn-1-ol]	10 to 1000 nM	> 1000 nM	> 1000 nM	> 1000 nM
CC(c1cc2ccccn2c1-c1ccccn1)n1nc(-c2cnc(N)s2)c2c(N)ncnc21 (stereo not shown) [Example 103, 5-(4-amino-1-{1-[3-(pyridin-2-yl)indolizin-2-yl]ethyl}-1H-pyrazolo[3,4-d]pyrimidin-3-yl)-1,3-thiazol-2-amine]	10 to 1000 nM	10 to 1000 nM	10 to 1000 nM	> 1000 nM

Continued, values first:

IC50 (PI3Kδ)	IC50 (PI3Kγ)	IC50 (PI3Kβ)	IC50 (PI3Kα)	Compound
10 to 1000 nM	> 1000 nM	10 to 1000 nM	> 1000 nM	CC(c1cc2ccccn2c1-c1ccccn1)n1nc(-c2cc(N)cc(F)c2)c2c(N)ncnc21 (stereo not shown) [Example 76, 3-(3-amino-5-fluorophenyl)-1-{1-[3-(pyridin-2-yl)indolizin-2-yl]ethyl}-1H-pyrazolo[3,4-d]pyrimidin-4-amine]
10 to 1000 nM	> 1000 nM	10 to 1000 nM	> 1000 nM	CC(c1cc2ccccn2c1-c1ccccc1)n1nc(-c2cc(O)cc(F)c2)c2c(N)ncnc21 (stereo not shown) [Example 85, 3-{4-amino-1-[1-(3-phenylindolizin-2-yl)ethyl]-1H-pyrazolo[3,4-d]pyrimidin-3-yl}-5-fluorophenol]
10 to 1000 nM	10 to 1000 nM	> 1000 nM	> 1000 nM	CC(c1cc2ccccn2c1-c1ccccc1F)n1nc(-c2cc(O)cc(F)c2)c2c(N)ncnc21 (stereo not shown) [Example 86, 3-(4-amino-1-{1-[3-(2-fluorophenyl)indolizin-2-yl]ethyl}-1H-pyrazolo[3,4-d]pyrimidin-3-yl)-5-fluoro-phenol]
10 to 1000 nM	> 1000 nM	10 to 1000 nM	> 1000 nM	Cc1ccc2cc(C(C)n3nc(-c4cc(O)cc(F)c4)c4c(N)ncnc43)c(-c3ccccn3)n2c1 (stereo not shown) [Example 87, 3-(4-amino-1-{1-[6-methyl-3-(pyridin-2-yl)indolizin-2-yl]ethyl}-1H-pyrazolo[3,4-d]pyrimidin-3-yl)-5-fluorophenol]
10 to 1000 nM	> 1000 nM	> 1000 nM	> 1000 nM	CC(c1cc2ccccn2c1-c1ccc(CN2CCOCC2)cc1)n1nc(-c2cc(O)cc(F)c2)c2c(N)ncnc21 (stereo not shown) [Example 91, 3-[4-amino-1-(1-{3-[4-(morpholin-4-ylmethyl)phenyl]indolizin-2-yl}ethyl)-1H-pyrazolo[3,4-d]pyrimidin-3-yl]-5-fluorophenol]
10 to 1000 nM	> 1000 nM	10 to 1000 nM	> 1000 nM	CC(c1cc2ccccn2c1-c1ccc(CN(C)C)cc1)n1nc(-c2cc(O)cc(F)c2)c2c(N)ncnc21 (stereo not shown) [Example 92, 3-{4-amino-1-[1-(3-{4-[(dimethylamino)methyl]phenyl}indolizin-2-yl)ethyl]-1H-pyrazolo[3,4-d]pyrimidin-3-yl}-5-fluorophenol]
< 10 nM	10 to 1000 nM	10 to 1000 nM	10 to 1000 nM	CC(c1cc2ccccn2c1-c1cncs1)n1nc(-c2cc(O)cc(F)c2)c2c(N)ncnc21 (stereo not shown) [Example 94, 3-(4-amino-1-{1-[3-(1,3-thiazol-5-yl)indolizin-2-yl]ethyl}-1H-pyrazolo[3,4-d]pyrimidin-3-yl)-5-fluorophenol]
< 10 nM	> 1000 nM	10 to 1000 nM	> 1000 nM	CC(c1cc2cccnn2c1-c1ccccn1)n1nc(-c2cc(O)cc(F)c2)c2c(N)ncnc21 (stereo not shown) [Example 96, 3-(4-amino-1-{1-[7-(pyridin-2-yl)pyrrolo[1,2-b]pyridazin-6-yl]ethyl}-1H-pyrazolo[3,4-d]pyrimidin-3-yl)-5-fluorophenol]
< 10 nM	10 to 1000 nM	10 to 1000 nM	10 to 1000 nM	Nc1ncnc2c1c(-c1cc(O)cc(F)c1)nn2Cc1cc2ccccn2c1-c1ccccn1 [Example 97, 3-(4-amino-1-{[3-(pyridin-2-yl)indolizin-2-yl]methyl}-1H-pyrazolo[3,4-d]pyrimidin-3-yl)-5-fluorophenol]
10 to 1000 nM	10 to 1000 nM	10 to 1000 nM	10 to 1000 nM	Nc1ncnc2c1c(-c1cc(O)cc(F)c1)nn2Cc1cc2ccccn2c1-c1cccnc1 [Example 98, 3-(4-amino-1-{[3-(pyridin-3-yl)indolizin-2-yl]methyl}-1H-pyrazolo[3,4-d]pyrimidin-3-yl)-5-fluorophenol]
< 10 nM	10 to 1000 nM	10 to 1000 nM	10 to 1000 nM	Nc1ncnc2c1c(-c1cc(O)cc(F)c1)nn2Cc1cc2ccccn2c1-c1ccncc1 [Example 99, 3-(4-amino-1-{[3-(pyridin-4-yl)indolizin-2-yl]methyl}-1H-pyrazolo[3,4-d]pyrimidin-3-yl)-5-fluorophenol]
< 10 nM	10 to 1000 nM	10 to 1000 nM	> 1000 nM	Nc1ncnc2c1c(-c1cc(O)cc(F)c1)nn2Cc1cc2cccnn2c1-c1ccccn1 [Example 100, 3-(4-amino-1-{[7-(pyridin-2-yl)pyrrolo[1,2-b]pyridazin-6-yl]methyl}-1H-pyrazolo[3,4-d]pyrimidin-3-yl)-5-fluorophenol]
10 to 1000 nM	> 1000 nM	10 to 1000 nM	> 1000 nM	CC(c1cc2ccccn2c1C1=CCNCC1)n1nc(-c2cc(O)cc(F)c2)c2c(N)ncnc21 (stereo not shown) [Example 101, 3-(4-amino-1-{1-[3-(1,2,3,6-tetrahydropyridin-4-yl)indolizin-2-yl]ethyl}-1H-pyrazolo[3,4-d]pyrimidin-3-yl)-5-fluorophenol]
< 10 nM	10 to 1000 nM	10 to 1000 nM	10 to 1000 nM	CC(c1cc2cc(Cl)ccn2c1-c1ccccn1)n1nc(-c2cc(O)cc(F)c2)c2c(N)ncnc21 (stereo not shown) [Example 104, 3-(4-amino-1-{1-[7-chloro-3-(pyridin-2-yl)indolizin-2-yl]ethyl}-1H-pyrazolo[3,4-d]pyrimidin-3-yl)-5-fluorophenol]
